The experiment has as its system late passage TERT-immortalized 7A chicken fibroblasts stably transfected with ggMYOD. The experiment in a line: Myotube formation (MyHC staining) of late passage 7A TERT ggMYOD fibroblasts in different media. Type of experiment: cell-based. The following applies: 7A TERT ggMyoD cells, PDL >100; sodium butyrate 0.1 mM added to ME9. Here is the method: This experiment was designed to assess expression of endogenous downstream myogenic factors (ggMyoG, ggMYMK, and ggMyHC1e) following transfection with a vector encoding ggMYOD in late passage (PDL >100) immortalized fibroblast cells compared to primary fibroblasts. TERT-immortalized 7A fibroblasts were cultured for PDL >100 prior to transfection. For these experiments, a vector including a PGK promoter driving expression of a nucleic acid sequence encoding ggMYOD was transfected into TERT-immortalized 7A chicken fibroblasts (“7A TERT”) or primary fibroblasts using Lipofectamine 3000. Each vector included a puromycin selection cassette to enable selection. Following transfection and selection (0.5 mg/mL puromycin for 4 days), fibroblasts were exposed either to differentiation media (i.e., DMEM/F-12, 2% horse serum) or proliferation media (i.e., ME9; referred to as “undifferentiated” sample (see also culture medias described in FIG. 2)) prior to being assessed for myogenic marker expression using qPCR.
To assess whether the late passage immortalized 7A chicken fibroblasts could be induced to form myotubes, the late passage immortalized 7A chicken fibroblasts stably transfected with ggMYOD (as described above; referred to as 7A TERT ggMYOD) were cultured in media: ME58, ME9, and ME9+0.1 mM sodium butyrate. In FIGS. 13A-C MyHC staining was used to aid identification of myotubes.

The values that follow come from US20230220347A1, “SCALING UP MYOGENIC TISSUE: LATE PASSAGE MYOGENICITY” (Upside Foods, Inc., priority 2021, published 2023).

Entries after “also recorded” stand apart in the source; their conditions may differ.

As for `CCCC(=O)[O-].[Na+]` [sodium butyrate], the “differentiation capacity (myotube formation, MyHC staining)” value was “dramatic improvement in differentiation capacity; also recorded: significant increase in myogenic differentiation capacity”.
